Assay: molar heat capacity at constant pressure
Conditions: 101.33 kPa

O=P([O-])([O-])[O-].[Fe+2].[Li+] [iron(II) lithium phosphate]
Conditions	molar heat capacity at constant pressure [J/K/mol]
2.03 K, Crystal 2, relaxation calorimetry	0.0162
2.2 K, Crystal 2, relaxation calorimetry	0.0187
2.38 K, Crystal 2, relaxation calorimetry	0.0224
2.58 K, Crystal 2, relaxation calorimetry	0.0243
2.8 K, Crystal 2, relaxation calorimetry	0.0271
3.04 K, Crystal 2, relaxation calorimetry	0.0309
3.29 K, Crystal 2, relaxation calorimetry	0.0325
3.56 K, Crystal 2, relaxation calorimetry	0.0401
3.86 K, Crystal 2, relaxation calorimetry	0.048
4.19 K, Crystal 2, relaxation calorimetry	0.0562
4.54 K, Crystal 2, relaxation calorimetry	0.059
4.92 K, Crystal 2, relaxation calorimetry	0.0709
5 K, Crystal 2, relaxation calorimetry	0.0481
5.33 K, Crystal 2, relaxation calorimetry	0.0742
5.78 K, Crystal 2, relaxation calorimetry	0.0903
6.26 K, Crystal 2, relaxation calorimetry	0.101
6.78 K, Crystal 2, relaxation calorimetry	0.12
7.35 K, Crystal 2, relaxation calorimetry	0.138
7.97 K, Crystal 2, relaxation calorimetry	0.173
8.64 K, Crystal 2, relaxation calorimetry	0.22
9.36 K, Crystal 2, relaxation calorimetry	0.276
10 K, Crystal 2, relaxation calorimetry	0.3419
10.14 K, Crystal 2, relaxation calorimetry	0.364
10.23 K, Crystal 2, relaxation calorimetry	0.46
10.75 K, Crystal 2, relaxation calorimetry	0.535
11.26 K, Crystal 2, relaxation calorimetry	0.615
11.77 K, Crystal 2, relaxation calorimetry	0.706
12.28 K, Crystal 2, relaxation calorimetry	0.808
12.8 K, Crystal 2, relaxation calorimetry	0.917
13.31 K, Crystal 2, relaxation calorimetry	1.038
13.83 K, Crystal 2, relaxation calorimetry	1.171
14.34 K, Crystal 2, relaxation calorimetry	1.314
14.85 K, Crystal 2, relaxation calorimetry	1.467
15 K, Crystal 2, relaxation calorimetry	1.514
15.36 K, Crystal 2, relaxation calorimetry	1.631
15.88 K, Crystal 2, relaxation calorimetry	1.797
16.39 K, Crystal 2, relaxation calorimetry	1.977
16.9 K, Crystal 2, relaxation calorimetry	2.169
17.41 K, Crystal 2, relaxation calorimetry	2.363
17.93 K, Crystal 2, relaxation calorimetry	2.571
18.44 K, Crystal 2, relaxation calorimetry	2.79
18.95 K, Crystal 2, relaxation calorimetry	3.015
19.47 K, Crystal 2, relaxation calorimetry	3.249
19.98 K, Crystal 2, relaxation calorimetry	3.484
20 K, Crystal 2, relaxation calorimetry	3.498
20.49 K, Crystal 2, relaxation calorimetry	3.75
21.01 K, Crystal 2, relaxation calorimetry	3.99
21.51 K, Crystal 2, relaxation calorimetry	4.26
22.03 K, Crystal 2, relaxation calorimetry	4.55
22.54 K, Crystal 2, relaxation calorimetry	4.83
23.05 K, Crystal 2, relaxation calorimetry	5.13
23.56 K, Crystal 2, relaxation calorimetry	5.43
24.08 K, Crystal 2, relaxation calorimetry	5.74
24.59 K, Crystal 2, relaxation calorimetry	6.06
25 K, Crystal 2, relaxation calorimetry	6.334
25.1 K, Crystal 2, relaxation calorimetry	6.4
25.61 K, Crystal 2, relaxation calorimetry	6.75
26.13 K, Crystal 2, relaxation calorimetry	7.09
26.64 K, Crystal 2, relaxation calorimetry	7.45
27.15 K, Crystal 2, relaxation calorimetry	7.84
27.67 K, Crystal 2, relaxation calorimetry	8.22
28.18 K, Crystal 2, relaxation calorimetry	8.63
28.69 K, Crystal 2, relaxation calorimetry	9.04
29.2 K, Crystal 2, relaxation calorimetry	9.47
29.71 K, Crystal 2, relaxation calorimetry	9.92
30 K, Crystal 2, relaxation calorimetry	10.17
30.22 K, Crystal 2, relaxation calorimetry	10.36
30.73 K, Crystal 2, relaxation calorimetry	10.82
31.24 K, Crystal 2, relaxation calorimetry	11.31
31.76 K, Crystal 2, relaxation calorimetry	11.78
32.27 K, Crystal 2, relaxation calorimetry	12.28
32.78 K, Crystal 2, relaxation calorimetry	12.78
33.29 K, Crystal 2, relaxation calorimetry	13.28
33.8 K, Crystal 2, relaxation calorimetry	13.81
34.31 K, Crystal 2, relaxation calorimetry	14.35
34.82 K, Crystal 2, relaxation calorimetry	14.9
35 K, Crystal 2, relaxation calorimetry	15.09
35.34 K, Crystal 2, relaxation calorimetry	15.46
35.85 K, Crystal 2, relaxation calorimetry	16.03
37.02 K, Crystal 2, relaxation calorimetry	17.18
38.89 K, Crystal 2, relaxation calorimetry	19.19
40 K, Crystal 2, relaxation calorimetry	20.69
40.75 K, Crystal 2, relaxation calorimetry	21.8
42 K, Crystal 2, relaxation calorimetry	23.73
42.62 K, Crystal 2, relaxation calorimetry	24.74
44.48 K, Crystal 2, relaxation calorimetry	28.1
45 K, Crystal 2, relaxation calorimetry	29.13
45.5 K, Crystal 2, relaxation calorimetry	30.18
45.72 K, Crystal 2, relaxation calorimetry	30.67
45.92 K, Crystal 2, relaxation calorimetry	31.15
46 K, Crystal 2, relaxation calorimetry	31.31
46.14 K, Crystal 2, relaxation calorimetry	31.65
46.34 K, Crystal 2, relaxation calorimetry	32.17
46.55 K, Crystal 2, relaxation calorimetry	32.68
46.75 K, Crystal 2, relaxation calorimetry	33.24
46.97 K, Crystal 2, relaxation calorimetry	33.77
47 K, Crystal 2, relaxation calorimetry	33.89
47.16 K, Crystal 2, relaxation calorimetry	34.33
47.38 K, Crystal 2, relaxation calorimetry	34.9
47.58 K, Crystal 2, relaxation calorimetry	35.53
47.8 K, Crystal 2, relaxation calorimetry	36.14
47.99 K, Crystal 2, relaxation calorimetry	36.79
48 K, Crystal 2, relaxation calorimetry	36.77
48.2 K, Crystal 2, relaxation calorimetry	37.43
48.4 K, Crystal 2, relaxation calorimetry	38.11
48.62 K, Crystal 2, relaxation calorimetry	38.7
48.82 K, Crystal 2, relaxation calorimetry	39.3
49 K, Crystal 2, relaxation calorimetry	39.73
49.03 K, Crystal 2, relaxation calorimetry	39.72
49.22 K, Crystal 2, relaxation calorimetry	40.03
49.24 K, Crystal 1, combination of DSC and relaxation calorimetry	39.99
49.24 K, Crystal 2, relaxation calorimetry	39.99
49.44 K, Crystal 1, relaxation calorimetry	39.73
49.64 K, Crystal 1, relaxation calorimetry	38.83
49.85 K, Crystal 1, relaxation calorimetry	36.64
50 K, Crystal 1, combination of DSC and relaxation calorimetry	34.52
50.05 K, Crystal 1, relaxation calorimetry	33.84
50.27 K, Crystal 1, relaxation calorimetry	30.69
50.47 K, Crystal 1, relaxation calorimetry	28.52
50.69 K, Crystal 1, relaxation calorimetry	26.66
50.89 K, Crystal 1, relaxation calorimetry	25.59
51 K, Crystal 1, combination of DSC and relaxation calorimetry	25.15
51.08 K, Crystal 1, relaxation calorimetry	24.86
51.29 K, Crystal 1, relaxation calorimetry	24.3
51.5 K, Crystal 1, relaxation calorimetry	23.89
51.7 K, Crystal 1, relaxation calorimetry	23.58
51.9 K, Crystal 1, relaxation calorimetry	23.36
52 K, Crystal 1, combination of DSC and relaxation calorimetry	23.25
52.12 K, Crystal 1, relaxation calorimetry	23.13
52.32 K, Crystal 1, relaxation calorimetry	22.99
52.53 K, Crystal 1, relaxation calorimetry	22.88
52.72 K, Crystal 1, relaxation calorimetry	22.83
52.94 K, Crystal 1, relaxation calorimetry	22.74
53 K, Crystal 1, combination of DSC and relaxation calorimetry	22.72
53.14 K, Crystal 1, relaxation calorimetry	22.69
53.35 K, Crystal 1, relaxation calorimetry	22.66
53.55 K, Crystal 1, relaxation calorimetry	22.66
53.77 K, Crystal 1, relaxation calorimetry	22.66
53.96 K, Crystal 1, relaxation calorimetry	22.66
54 K, Crystal 1, combination of DSC and relaxation calorimetry	22.66
54.18 K, Crystal 1, relaxation calorimetry	22.69
54.38 K, Crystal 1, relaxation calorimetry	22.68
54.59 K, Crystal 1, relaxation calorimetry	22.73
54.79 K, Crystal 1, relaxation calorimetry	22.77
55 K, Crystal 1, combination of DSC and relaxation calorimetry	22.82
55 K, Crystal 1, relaxation calorimetry	22.82
55.2 K, Crystal 1, relaxation calorimetry	22.85
55.41 K, Crystal 1, relaxation calorimetry	22.91
55.62 K, Crystal 1, relaxation calorimetry	22.95
56.61 K, Crystal 1, relaxation calorimetry	23.28
57.71 K, Crystal 1, relaxation calorimetry	23.69
58.79 K, Crystal 1, relaxation calorimetry	24.17
59.89 K, Crystal 1, relaxation calorimetry	24.67
60 K, Crystal 1, combination of DSC and relaxation calorimetry	24.71
60.97 K, Crystal 1, relaxation calorimetry	25.19
62.06 K, Crystal 1, relaxation calorimetry	25.78
63.15 K, Crystal 1, relaxation calorimetry	26.36
64.24 K, Crystal 1, relaxation calorimetry	26.97
65 K, Crystal 1, combination of DSC and relaxation calorimetry	27.41
65.33 K, Crystal 1, relaxation calorimetry	27.59

Source: the NIST ThermoML archive (doi:10.1016/j.jct.2015.01.007)
